We go through one compound from patent US11008619B2, “Diagnostic markers for platelet function and methods of use” (Duke University, priority 2012, dated 2021).

For experiment [1], the system named is non COX-1 dependent platelet function (NCDPF). In words: Platelet function score (PFS) in aspirin challenge study. The class given is in vivo, human. Conditions: for mean difference in Pre vs. Post PFS: before vs 3 hrs after single 325 mg aspirin, p<0.0001; for Post PFS: after first 325 mg dose. On the procedure:
A group of healthy adult volunteers (HV1) were recruited and a defined set of platelet function measurements, as described below, were made before aspirin (“Pre”) and 3-hrs after (“Post”) a single 325 mg tablet of aspirin. Subsequently, subjects were returned for a final assessment (“Final”) 2 weeks after 325 mg/day aspirin. This dose of aspirin was chosen to ensure complete suppression of platelet COX-1 activity in each participant. The 3-hour timepoint was chosen to measure the maximal inhibitory effect of aspirin.
(§1) Platelet function studies. Before each visit, subjects were asked to fast and to refrain from tobacco (during the preceding 24 hrs) and alcohol or intensive exercise on the day of testing. Phlebotomy was performed after 10 minutes of resting supine with minimal trauma or stasis at the venipuncture site using a 21-gauge needle into 3.2% sodium citrate tubes. The focus of these studies was around NCDPF and thus, the NCDPF assays were defined as the following: PFA100, and epinephrine, ADP, and collagen induced LTA. […] Serum thromboxane B2 and AA induced aggregation were chosen as measures of COX-1 activity and also added in vitro aspirin to the AA aggregation assay to further assess for any evidence of unsuppressed COX-1 activity.
(§2) Light transmittance aggregometry. Light transmittance aggregometry (LTA) was performed as previously described (Born (1964) Nature 202:95-96) using the following agonists: arachidonic acid (AA, Chrono-log, 0.5 mM), epinephrine (Chrono-Log, 10, 1, and 0.5 μM), ADP (Chrono-Log, 10, 5, and 1 μM), and collagen (Chrono-Log, 5 and 2 μg/ml). The area under the LTA curve (AUC) was chosen as the primary measure of aggregation because the AUC captures several features of the aggregometry curve that are each sensitive to the effects of aspirin: slope, maximal aggregation, and final aggregation. To standardize AUC measurements across individuals and visits the test duration was fixed at 12 minutes for epinephrine and six minutes for collagen, AA, and ADP.
Platelet Function Analyzer. PFA100 closure time with the use of the collagen/epinephrine cartridge was performed. […] Briefly, citrated whole blood was placed in the PFA100 chamber and blood was aspirated through an aperture in a collagen/epinephrine coated membrane. The amount of time (in seconds[s], up to a maximum of 300 s) until blood ceased to flow through the membrane aperture was recorded as the final result.
Platelet Function Score. […] A platelet function score was derived from a principal components analysis (PCA) of all platelet function measurements made in the HV1 cohort. PCA was chosen to quantify this biological factor. PCA is an unbiased, mathematical technique for reducing a collection of measurements down to a single “meta-measurement” that best describes the aggregate behavior of the set. For example, in the biological sciences, PCA can quantify population substructure in genome wide association studies, patterns of gene expression in microarray experiments, and metabolic pathways in metabolomic studies. In the present study, the input into the PCA was the following set of non-imputed measures from the HV1 cohort: the PFA100 closure time and the AUC from each concentration of ADP, epinephrine, and collagen LTA.

Experiment [2] deals with COX-1 dependent platelet function. In words: Arachidonic acid-induced platelet aggregation (light transmittance aggregometry), with and without in vitro aspirin. The class given is in vivo, human. On the procedure: as §1, §2
A further experiment has as its system COX-1 activity. In words: Serum thromboxane B2 ELISA. Format: in vivo, human. Conditions: HV2; Final visit after 4 weeks 325 mg/day aspirin; range 0.1-2.0. The protocol: as §1
Experiment [3] has as its system non COX-1 dependent platelet function (NCDPF). In words: In vitro addition of aspirin to PRP, epinephrine/ADP/collagen induced light transmittance aggregometry. Format: cell-based, human. Conditions: n=5 HV2 and n=15 DM on daily aspirin. The protocol:
Light transmittance aggregometry. […] The area under the LTA curve (AUC) was chosen as the primary measure of aggregation because the AUC captures several features of the aggregometry curve that are each sensitive to the effects of aspirin: slope, maximal aggregation, and final aggregation. To standardize AUC measurements across individuals and visits the test duration was fixed at 12 minutes for epinephrine and six minutes for collagen, AA, and ADP.
Description of area under the curve (AUC) measurement. Using light transmittance aggregometry the percent aggregation is plotted over time to produce the upper curve similar to FIG. 21. The AUC is measured by the aggregometer over the duration of the test, which is fixed at 6 minutes for collagen and ADP and 12 minutes for epinephrine. Higher AUC values reflect higher maximal and residual aggregation, slope, and velocities.
In vitro aspirin. A stock solution of aspirin was created by dissolving acetylsalicylic acid (Sigma-Aldrich A5376) into DMSO and aliquots stored at −80 degrees Celsius. On the day of use, fresh aliquots were thawed, diluted in PBS, and stored at 4 degrees Celsius. […] The PRP was allowed to incubate with in vitro aspirin for 10 minutes at room temperature prior to the addition of agonist.

Experiment [4] deals with RUNX1 P1 and total transcripts in purified platelets. Briefly: Platelet RNA RT-PCR for RUNX1 transcripts before and after aspirin exposure. The class given is in vivo, human. Conditions: healthy volunteers, before vs after aspirin exposure.
Method: Platelet purification and RNA isolation.
RNA was extracted from peripheral blood derived platelets using the miRvana miRNA Isolation Kit (Life Technologies) with acid-phenol chloroform (Life Technologies) separation. Due to the low concentration of available platelet RNA, concentration and integrity were assessed using the Agilent 2100 Bioanalyzer Pico chips (Agilent Technologies; Santa Clara, Calif.). The concentration was too low for accurate determination via standard spectrophotometric methods and for the Agilent Pico RIN algorithm to accurately determine a RIN quality score. As a result, quality was assessed by visualization of the Bioanalyzer lane curve. RNA samples with obvious 18S and 28S peaks, minimal degradation “noise” between peaks, and no large aberrant peaks above or below the 18S and 28S bands were selected for further analysis. […]
Concentration and integrity of available platelet RNA were assessed using Agilent 2100 Bioanalyzer Pico chips (Agilent Technologies; Santa Clara, Calif.). […] As a result, quality was assessed by visualization of the Bioanalyzer trace. […]
A loading test plate was run using 4 samples; 2 from each experimental group. […] Optimal loading would result in expression of our lowest targets of interest resulting in Cq values <35, abundant transcripts >18 and a minimal loss of low quantity samples to high RNA loading requirements. […]
For experiment [5], the system named is human promyelocytic cell line (HL60). Conditions: HL60, in vitro aspirin vs vehicle-only control; cited from earlier work.

On to `CC(=O)Oc1ccccc1C(=O)O` [aspirin, acetylsalicylic acid], for which the “mean difference in Pre vs. Post PFS” value in experiment [1] (DM diabetics, 95% CI 3.6-4.8) came to 4.2; in experiment [1] (HV1 healthy volunteers, 95% CI 3.0-3.7) it was 3.4; in experiment [1] (HV2 healthy volunteers, 95% CI 4.5-5.2) it was 4.8. Besides, the “mean difference Post and Final PFS” value in experiment [1] (HV1, after two weeks of 325 mg/day aspirin, shifted higher, CI 0.1-0.8, p=0.01) is 0.5. In experiment [1] (HV2, after four weeks of 325 mg/day aspirin, shift to higher PFS, CI 0.2-1.2, p=0.004), the “mean difference between Post and Final PFS” value is given as 0.7. Also, the “Post PFS” value is on record as 1.68 in experiment [1] (HV2 subjects that decreased their Final PFS) and −1.0 in experiment [1] (HV2 subjects that increased their Final PFS). For the same compound, the “AAA median % aggregation” value in experiment [2] (HV2 and DM subjects, Final visit on daily 325 mg aspirin, range 0-7%) was determined as 3.0%. Moreover, the “effect of in vitro addition of aspirin on AAA” value in experiment [2] (in vitro aspirin 53 μM added after 325 mg oral dose, HV2 and DM) is “no further effect”. Moreover, the “COX-1 dependent platelet function, as assessed by AAA” value in experiment [2] (single 325 mg dose, all HV2 and DM subjects, AA 0.5 mM) was “effectively suppressed”. For the same compound, in the experiment with COX-1 activity, the “serum thromboxane B2 mean concentration” value worked out at 0.3 ng/mL. Further, the “mean change aggregation with in vitro aspirin” value in experiment [3] (ADP 5 μM, CI −6.9-2.4%, p=0.3) is given as −2.3%; in experiment [3] (collagen 2 mg/ml, CI −6.9, 10.0, p=0.71) it was 1.5%; in experiment [3] (epinephrine 0.5, CI −0.8-4.8%, p=0.2), 2.0%. The “change in total RUNX1 gene expression” value in experiment [4] is given as “minimal changes”. In experiment [4], the “up (or down) regulation in P1 RUNX1 expression” value is given as no more than 5 fold. For the same compound, in experiment [5], the “expression of a P1-specific RUNX1 probe set” value is “increased”. Further, the “expression of the remaining RUNX1 probe sets” value in experiment [5] is “did not change”. In addition, the “expression of two P2 RUNX1 probe sets” value in experiment [5] is “decreased”.
